# According to ChEMBL document CHEMBL1130744, “Potent and selective inhibitors of the proteasome: dipeptidyl boronic acids” (Bioorg Med Chem Lett, 1998):
# Non-standard residues stand in square brackets, D forms with d. Residues, ends and D or L forms follow the SMILES beside them. *: point of attachment. 1Nal = N[C@@H](Cc1cccc2ccccc12)C(=O)O; 2Nal = N[C@@H](Cc1ccc2ccccc2c1)C(=O)O; Cbz = O=C(OCc1ccccc1)*; CF3 = FC(F)(F)*; CH2Cl = ClC*
# Molecular target: T1, Neutrophil elastase (Homo sapiens, UniProt P08246)
# T1 sequence (P08246 whole entry): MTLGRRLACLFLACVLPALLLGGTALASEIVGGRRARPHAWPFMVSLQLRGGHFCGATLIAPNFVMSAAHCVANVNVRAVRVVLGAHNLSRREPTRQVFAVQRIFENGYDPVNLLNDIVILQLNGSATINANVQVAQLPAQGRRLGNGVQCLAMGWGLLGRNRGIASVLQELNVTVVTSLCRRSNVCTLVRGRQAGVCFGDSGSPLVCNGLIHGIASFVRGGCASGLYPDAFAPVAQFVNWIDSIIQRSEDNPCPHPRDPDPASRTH
# Assay: Inhibitory activity against human leukocyte elastase
row,Ki,Compound
1,2300 nM,CC(C)C[C@H](NC(=O)[C@H](Cc1ccccc1)NC(=O)c1cnccn1)B(O)O [BORTEZOMIB]

# Molecular target: Chymotrypsinogen B (Homo sapiens, UniProt P17538)
# Sequence (P17538 34-164 limits assumed, other chains not shown): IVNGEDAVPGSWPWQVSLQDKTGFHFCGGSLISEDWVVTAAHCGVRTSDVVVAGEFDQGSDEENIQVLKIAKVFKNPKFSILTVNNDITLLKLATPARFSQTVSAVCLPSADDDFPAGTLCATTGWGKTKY
# Sequence (P17538 167-263 limits assumed, other chains not shown): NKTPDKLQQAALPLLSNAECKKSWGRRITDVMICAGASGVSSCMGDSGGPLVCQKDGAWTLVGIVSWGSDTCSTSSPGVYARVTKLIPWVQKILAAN
# Assay: Inhibitory activity against human Chymotrypsinogen
row,Ki,Compound
1,320 nM,CC(C)C[C@H](NC(=O)[C@H](Cc1ccccc1)NC(=O)c1cnccn1)B(O)O [BORTEZOMIB]

# Molecular target: T2, Cathepsin G (Homo sapiens, UniProt P08311)
# T2 sequence (P08311 whole entry): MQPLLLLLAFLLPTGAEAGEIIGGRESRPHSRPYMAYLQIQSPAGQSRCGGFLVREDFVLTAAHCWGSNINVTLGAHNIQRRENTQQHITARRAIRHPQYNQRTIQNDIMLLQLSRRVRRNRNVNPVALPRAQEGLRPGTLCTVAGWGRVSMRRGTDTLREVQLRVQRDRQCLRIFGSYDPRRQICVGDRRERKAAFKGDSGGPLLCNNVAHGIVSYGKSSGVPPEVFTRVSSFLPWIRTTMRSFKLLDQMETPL
# Assay: Inhibitory activity against human cathepsin G
row,Ki,Compound
1,630 nM,CC(C)C[C@H](NC(=O)[C@H](Cc1ccccc1)NC(=O)c1cnccn1)B(O)O [BORTEZOMIB]

# Molecular target: Prothrombin (Homo sapiens, UniProt P00734)
# Assay: Inhibitory activity against thrombin
row,Ki,Compound
1,13000 nM,CC(C)C[C@H](NC(=O)[C@H](Cc1ccccc1)NC(=O)c1cnccn1)B(O)O [BORTEZOMIB]

# Molecular target: Cathepsin B (Homo sapiens, UniProt P07858)
# Assay: Inhibitory activity against Cathepsin B
row,Ki,Compound
1,6.1 nM,CC(C)C[C@H](NC(=O)[C@H](CC(C)C)NC(=O)[C@H](CC(C)C)NC(=O)OCc1ccccc1)B(O)O

# Molecular target: Proteasome
# Assay: Inhibitory activity against 20S Proteasome
# Assay type: subcellular, Oryctolagus cuniculus
row,Compound,Ki
1,CCOC(=O)C(=O)C(=O)[C@H](CC(C)C)NC(=O)[C@H](CC(C)C)NC(=O)[C@H](CC(C)C)NC(=O)OCc1ccccc1,45 nM
2,CC(C)C[C@@H](C=O)NC(=O)[C@H](Cc1ccccc1)NC(=O)c1cnccn1,1600 nM
3,CC(C)C[C@H](NC(=O)OCc1ccccc1)C(=O)N[C@@H](CC(C)C)C(=O)N[C@@H](CC(C)C)C(=O)c1nc2ccccc2o1,214 nM
4,CC(C)C[C@H](NC(=O)OCc1ccccc1)C(=O)N[C@@H](CC(C)C)C(=O)N[C@@H](CC(C)C)C(=O)C(F)(F)F (Cbz-Leu-Leu-Leu-CF3),1400 nM
5,CC(C)C[C@H](NC(=O)[C@H](CC(C)C)NC(=O)[C@H](CC(C)C)NC(=O)OCc1ccccc1)C(=O)CCl (Cbz-Leu-Leu-Leu-CH2Cl),22000 nM
6,CC(C)C[C@H](NC(=O)OCc1ccccc1)C(=O)N[C@@H](CC(C)C)C(=O)N[C@H](C=O)Cc1ccc2ccccc2c1 (Cbz-Leu-Leu-[2Nal]-aldehyde),25 nM
7,CC(C)C[C@@H](C=O)NC(=O)[C@H](CC(C)C)NC(=O)[C@H](Cc1ccc2ccccc2c1)NC(=O)OCc1ccccc1 (Cbz-[2Nal]-Leu-Leu-aldehyde),0.24 nM
8,CC(C)C[C@@H](C=O)NC(=O)[C@H](Cc1cccc2ccccc12)NC(=O)[C@H](Cc1ccc2ccccc2c1)NC(=O)OCc1ccccc1 (Cbz-[2Nal]-[1Nal]-Leu-aldehyde),0.015 nM
9,CC(C)C[C@@H](C=O)NC(=O)[C@H](CC(C)C)NC(=O)[C@H](CC(C)C)NC(=O)OCc1ccccc1 [MG-132] (Cbz-Leu-Leu-Leu-aldehyde),4 nM

# Other lines, results leading:
row,Ki,Compound
1,0.18 nM,CC(C)C[C@H](NC(=O)[C@H](Cc1cccc2ccccc12)NC(=O)c1cnccn1)B(O)O
2,130 nM,CC[C@@H](C)[C@@H](C=O)NC(=O)[C@H](CC(C)C)NC(=O)[C@H](CC(C)C)NC(=O)OCc1ccccc1
3,97 nM,CC(C)C[C@@H](C=O)NC(=O)[C@H](Cc1cccc2ccccc12)NC(=O)c1cnccn1
4,210 nM,CC(C)C[C@H](NC(=O)OCc1ccccc1)C(=O)N[C@@H](CC(C)C)C(=O)N[C@@H](C)C=O (Cbz-Leu-Leu-Ala-aldehyde)
5,3800 nM,CC(C)C[C@H](NC(=O)OCc1ccccc1)C(=O)N[C@@H](CC(C)C)C(=O)NCC=O (Cbz-Leu-Leu-Gly-aldehyde)
